Where “and” joins values, the source holds several entries; their conditions need not be identical. Identical values can stand only once.
System: 596521-263-R-J1-PDC complex spheroid growth
Assay: Anticancer human tumor 596521-263-R-J1-PDC patient-derived soft tissue sarcoma cell line growth inhibition [Asc]
Settings: for viability, T/C: stronger effect = lower value
Procedure, shortened: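 Concentration series start at each agent's clinical Cmax, or at 10 microM when none is established, and drop in half-log steps; agents are applied alone or together to complex spheroids built with HUVEC and hMSC.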
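Also: spheroids exposed to compounds for 7 days.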

Cc1nc(N2CCC3(CC2)COC(C)C3N)c(CO)nc1Sc1ccnc(N)c1Cl (stereo unspecified) + CNC(C)C(=O)NC1CN(S(=O)(=O)c2cccc(S(=O)(=O)N3CCC4CCC(C(=O)NC(c5ccccc5)c5ccccc5)N4C(=O)C(NC(=O)C(C)NC)C3)c2)CCC2CCC(C(=O)NC(c3ccccc3)c3ccccc3)N2C1=O
IC50 (curve of first compound, second compound 0.00316 µM): > 3 µM
IC50 (curve of first compound, second compound 0.01 µM): > 3 µM
IC50 (curve of first compound, second compound 0.0316 µM): > 3 µM
IC50 (curve of first compound, second compound 0.1 µM): 2.25 µM
IC50 (curve of first compound, second compound 0.316 µM): > 3 µM
IC50 (curve of first compound, second compound 1 µM): 1.62 µM
viability, T/C (second compound 0.00316 µM, first compound 0.00949 µM): 101%
viability, T/C (second compound 0.00316 µM, first compound 0.03 µM): 93.3%
viability, T/C (second compound 0.00316 µM, first compound 0.0949 µM): 98.7%
viability, T/C (second compound 0.00316 µM, first compound 0.3 µM): 97.3%
viability, T/C (second compound 0.00316 µM, first compound 0.949 µM): 75.8%
viability, T/C (second compound 0.00316 µM, first compound 3 µM): 57.6%
viability, T/C (second compound 0.01 µM, first compound 0.00949 µM): 96.9%
viability, T/C (second compound 0.01 µM, first compound 0.03 µM): 87.4%
viability, T/C (second compound 0.01 µM, first compound 0.0949 µM): 89.8%
viability, T/C (second compound 0.01 µM, first compound 0.3 µM): 80.6%
viability, T/C (second compound 0.01 µM, first compound 0.949 µM): 73.1%
viability, T/C (second compound 0.01 µM, first compound 3 µM): 61%
viability, T/C (second compound 0.0316 µM, first compound 0.00949 µM): 102%
viability, T/C (second compound 0.0316 µM, first compound 0.03 µM): 82.2%
viability, T/C (second compound 0.0316 µM, first compound 0.0949 µM): 94.2%
viability, T/C (second compound 0.0316 µM, first compound 0.3 µM): 77%
viability, T/C (second compound 0.0316 µM, first compound 0.949 µM): 71.5%
viability, T/C (second compound 0.0316 µM, first compound 3 µM): 50.7%
viability, T/C (second compound 0.1 µM, first compound 0.00949 µM): 90.5%
viability, T/C (second compound 0.1 µM, first compound 0.03 µM): 82.2%
viability, T/C (second compound 0.1 µM, first compound 0.0949 µM): 77.1%
viability, T/C (second compound 0.1 µM, first compound 0.3 µM): 75.5%
viability, T/C (second compound 0.1 µM, first compound 0.949 µM): 63.1%
viability, T/C (second compound 0.1 µM, first compound 3 µM): 45.3%
viability, T/C (second compound 0.316 µM, first compound 0.00949 µM): 79.2%
viability, T/C (second compound 0.316 µM, first compound 0.03 µM): 81.5%
viability, T/C (second compound 0.316 µM, first compound 0.0949 µM): 78.9%
viability, T/C (second compound 0.316 µM, first compound 0.3 µM): 69.8%
viability, T/C (second compound 0.316 µM, first compound 0.949 µM): 67.7%
viability, T/C (second compound 0.316 µM, first compound 3 µM): 49.8%
viability, T/C (second compound 1 µM, first compound 0.00949 µM): 80.3%
viability, T/C (second compound 1 µM, first compound 0.03 µM): 71.2%
viability, T/C (second compound 1 µM, first compound 0.0949 µM): 72.4%
viability, T/C (second compound 1 µM, first compound 0.3 µM): 65.7%
viability, T/C (second compound 1 µM, first compound 0.949 µM): 58.5%
viability, T/C (second compound 1 µM, first compound 3 µM): 41.4%

CCN1CCN(Cc2ccc(Nc3ncc(F)c(-c4cc(F)c5nc(C)n(C(C)C)c5c4)n3)nc2)CC1
viability, T/C (compound 0.00316 µM): 99.1% and 89.3% and 99.2%
viability, T/C (compound 0.01 µM): 103% and 87.3% and 82%
viability, T/C (compound 0.0316 µM): 96.3% and 101% and 86.1%
viability, T/C (compound 0.1 µM): 97.9% and 93.3% and 105%
viability, T/C (compound 0.316 µM): 96.8% and 101% and 92%
viability, T/C (compound 1 µM): 79.4% and 77.1% and 87.2%
IC50 (curve of compound): > 1 µM

C=C(F)C(=O)N1CCN(c2nc(OCC3CCCN3C)nc3c2CCN(c2cccc4cccc(Cl)c24)C3)CC1CC#N (stereo unspecified) + CCN1C(C(=O)NC23CCC(C(=O)O)(CC2)CC3)C(c2cccc(Cl)c2F)C2(C(=O)Nc3cc(Cl)ccc32)C12CCCCC2
IC50 (curve of first compound, second compound 0.00949 µM): 5.24 µM
IC50 (curve of first compound, second compound 0.03 µM): 5.11 µM
IC50 (curve of first compound, second compound 0.0949 µM): 5.18 µM
IC50 (curve of first compound, second compound 0.3 µM): 5.11 µM
IC50 (curve of first compound, second compound 0.949 µM): 4.73 µM
IC50 (curve of first compound, second compound 3 µM): 4.53 µM
viability, T/C (second compound 0.00949 µM, first compound 0.0316 µM): 106%
viability, T/C (second compound 0.00949 µM, first compound 0.1 µM): 102%
viability, T/C (second compound 0.00949 µM, first compound 0.316 µM): 91.2%
viability, T/C (second compound 0.00949 µM, first compound 1 µM): 104%
viability, T/C (second compound 0.00949 µM, first compound 3.16 µM): 88.7%
viability, T/C (second compound 0.00949 µM, first compound 10 µM): 0.73%
viability, T/C (second compound 0.03 µM, first compound 0.0316 µM): 101%
viability, T/C (second compound 0.03 µM, first compound 0.1 µM): 90.4%
viability, T/C (second compound 0.03 µM, first compound 0.316 µM): 97.5%
viability, T/C (second compound 0.03 µM, first compound 1 µM): 97.3%
viability, T/C (second compound 0.03 µM, first compound 3.16 µM): 85.3%
viability, T/C (second compound 0.03 µM, first compound 10 µM): 0.62%
viability, T/C (second compound 0.0949 µM, first compound 0.0316 µM): 94.3%
viability, T/C (second compound 0.0949 µM, first compound 0.1 µM): 96.4%
viability, T/C (second compound 0.0949 µM, first compound 0.316 µM): 106%
viability, T/C (second compound 0.0949 µM, first compound 1 µM): 101%
viability, T/C (second compound 0.0949 µM, first compound 3.16 µM): 86.1%
viability, T/C (second compound 0.0949 µM, first compound 10 µM): 1.83%
viability, T/C (second compound 0.3 µM, first compound 0.0316 µM): 98.7%
viability, T/C (second compound 0.3 µM, first compound 0.1 µM): 107%
viability, T/C (second compound 0.3 µM, first compound 0.316 µM): 101%
viability, T/C (second compound 0.3 µM, first compound 1 µM): 100%
viability, T/C (second compound 0.3 µM, first compound 3.16 µM): 83.6%
viability, T/C (second compound 0.3 µM, first compound 10 µM): 2.96%
viability, T/C (second compound 0.949 µM, first compound 0.0316 µM): 109%
viability, T/C (second compound 0.949 µM, first compound 0.1 µM): 97.9%
viability, T/C (second compound 0.949 µM, first compound 0.316 µM): 108%
viability, T/C (second compound 0.949 µM, first compound 1 µM): 105%
viability, T/C (second compound 0.949 µM, first compound 3.16 µM): 75.3%
viability, T/C (second compound 0.949 µM, first compound 10 µM): 2.73%
viability, T/C (second compound 3 µM, first compound 0.0316 µM): 97%
viability, T/C (second compound 3 µM, first compound 0.1 µM): 98.6%
viability, T/C (second compound 3 µM, first compound 0.316 µM): 102%
viability, T/C (second compound 3 µM, first compound 1 µM): 80.2%
viability, T/C (second compound 3 µM, first compound 3.16 µM): 75.5%
viability, T/C (second compound 3 µM, first compound 10 µM): 2.66%
